Results as given in paper PMC12858467, “In vitro toxicokinetics and metabolic profiling of methoxycathinones and methylthiocathinones using human liver systems and hyphenated mass spectrometry” (Archives of Toxicology, 2025).

Columns and labels:
Format in all cases: in vitro ADME
Conditions in all cases: 30 min, 37 °C
CYP1A2 = biological target: T1, CYP1A2 (Homo sapiens, UniProt P05177); assay: Monooxygenases activity screening, CYP1A2; design: key: +, detected; -, not detected
T1 construct: purchased Discovery Life Sciences (Huntsville, LA, USA); host or cells: baculovirus-infected insect cells (microsomes, Supersomes)
T1 sequence (P05177 1-516): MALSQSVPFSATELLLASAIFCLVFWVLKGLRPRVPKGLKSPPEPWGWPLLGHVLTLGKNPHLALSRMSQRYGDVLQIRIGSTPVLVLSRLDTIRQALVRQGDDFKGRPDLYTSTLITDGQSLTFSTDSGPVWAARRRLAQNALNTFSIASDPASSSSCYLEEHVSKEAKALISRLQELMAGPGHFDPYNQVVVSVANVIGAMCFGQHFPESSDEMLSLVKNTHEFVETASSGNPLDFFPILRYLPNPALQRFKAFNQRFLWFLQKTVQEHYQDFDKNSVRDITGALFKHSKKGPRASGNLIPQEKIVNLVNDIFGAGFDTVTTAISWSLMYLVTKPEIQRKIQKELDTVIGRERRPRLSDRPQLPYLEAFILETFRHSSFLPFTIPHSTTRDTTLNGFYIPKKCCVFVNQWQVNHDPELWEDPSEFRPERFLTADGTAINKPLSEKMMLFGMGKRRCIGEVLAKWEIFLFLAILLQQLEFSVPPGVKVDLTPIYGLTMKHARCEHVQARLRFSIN
Procedure: (§1) For incubations with CYP2A6 or CYP2C9, phosphate buffer was replaced with 90 mM Tris buffer, according to the manufacturer’s guideline. […] All incubations were done in duplicate and concentrations were fixed. Verapamil (25 µM) was incubated as a positive control.

CYP2A6 = biological target: T2, CYP2A6 (Homo sapiens, UniProt P11509); assay: Monooxygenases activity screening, CYP2A6; design: key: +, detected; -, not detected
T2 construct: purchased Discovery Life Sciences (Huntsville, LA, USA); host or cells: baculovirus-infected insect cells (microsomes, Supersomes)
T2 sequence (P11509 1-494): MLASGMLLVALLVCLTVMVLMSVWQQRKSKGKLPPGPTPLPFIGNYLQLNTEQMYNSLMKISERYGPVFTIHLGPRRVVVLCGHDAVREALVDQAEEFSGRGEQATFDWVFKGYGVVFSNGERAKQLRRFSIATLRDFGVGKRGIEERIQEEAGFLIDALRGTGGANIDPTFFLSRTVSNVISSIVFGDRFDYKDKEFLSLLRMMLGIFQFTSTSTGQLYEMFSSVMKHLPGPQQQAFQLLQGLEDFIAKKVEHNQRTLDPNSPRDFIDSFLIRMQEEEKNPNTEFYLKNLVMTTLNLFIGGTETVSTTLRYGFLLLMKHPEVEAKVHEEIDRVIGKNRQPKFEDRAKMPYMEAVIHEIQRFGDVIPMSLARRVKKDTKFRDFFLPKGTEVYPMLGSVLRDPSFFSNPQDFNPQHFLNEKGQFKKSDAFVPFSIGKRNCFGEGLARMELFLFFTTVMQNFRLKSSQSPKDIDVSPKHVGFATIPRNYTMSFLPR
Procedure: as §1

CYP2B6 = biological target: T3, CYP2B6 (Homo sapiens, UniProt P20813); assay: Monooxygenases activity screening, CYP2B6; design: key: +, detected; -, not detected
T3 construct: purchased Discovery Life Sciences (Huntsville, LA, USA); host or cells: baculovirus-infected insect cells (microsomes, Supersomes)
T3 sequence (P20813 1-491): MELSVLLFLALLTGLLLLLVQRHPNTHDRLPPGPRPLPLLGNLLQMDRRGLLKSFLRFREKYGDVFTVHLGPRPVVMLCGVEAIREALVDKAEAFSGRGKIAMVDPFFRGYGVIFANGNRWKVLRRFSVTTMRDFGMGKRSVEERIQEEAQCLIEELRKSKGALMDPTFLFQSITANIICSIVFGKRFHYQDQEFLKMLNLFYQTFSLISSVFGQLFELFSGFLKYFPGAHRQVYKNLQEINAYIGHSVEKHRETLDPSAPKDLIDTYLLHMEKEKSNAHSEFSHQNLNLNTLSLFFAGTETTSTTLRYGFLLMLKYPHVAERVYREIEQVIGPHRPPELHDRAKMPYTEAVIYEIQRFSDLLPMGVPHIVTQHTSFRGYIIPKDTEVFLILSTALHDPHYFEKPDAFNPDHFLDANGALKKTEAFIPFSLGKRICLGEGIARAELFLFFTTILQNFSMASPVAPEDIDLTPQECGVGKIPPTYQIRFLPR
Procedure: as §1

CYP2C8 = biological target: T4, CYP2C8 (Homo sapiens, UniProt P10632); assay: Monooxygenases activity screening, CYP2C8; design: key: +, detected; -, not detected
T4 construct: purchased Discovery Life Sciences (Huntsville, LA, USA); host or cells: baculovirus-infected insect cells (microsomes, Supersomes)
T4 sequence (P10632 1-490): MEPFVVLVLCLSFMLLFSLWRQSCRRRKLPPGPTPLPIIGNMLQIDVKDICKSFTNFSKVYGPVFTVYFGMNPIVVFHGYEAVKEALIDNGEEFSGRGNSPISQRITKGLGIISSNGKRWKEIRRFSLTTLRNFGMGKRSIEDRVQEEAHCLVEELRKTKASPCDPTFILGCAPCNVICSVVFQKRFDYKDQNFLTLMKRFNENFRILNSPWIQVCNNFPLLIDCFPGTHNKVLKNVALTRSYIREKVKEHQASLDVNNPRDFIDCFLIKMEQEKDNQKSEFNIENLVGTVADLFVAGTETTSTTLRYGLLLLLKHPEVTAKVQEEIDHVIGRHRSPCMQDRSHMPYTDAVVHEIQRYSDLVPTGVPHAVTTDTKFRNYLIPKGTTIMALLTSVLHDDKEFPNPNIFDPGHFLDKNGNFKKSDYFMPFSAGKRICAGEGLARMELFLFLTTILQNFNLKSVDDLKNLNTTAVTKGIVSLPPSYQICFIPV
Procedure: as §1

CYP2C9 = biological target: T5, CYP2C9 (Homo sapiens, UniProt P11712); assay: Monooxygenases activity screening, CYP2C9; design: key: +, detected; -, not detected
T5 construct: purchased Discovery Life Sciences (Huntsville, LA, USA); host or cells: baculovirus-infected insect cells (microsomes, Supersomes)
Procedure: as §1

CYP2C19 = biological target: T6, CYP2C19 (Homo sapiens, UniProt P33261); assay: Monooxygenases activity screening, CYP2C19; design: key: +, detected; -, not detected
T6 construct: purchased Discovery Life Sciences (Huntsville, LA, USA); host or cells: baculovirus-infected insect cells (microsomes, Supersomes)
Procedure: as §1

CYP2D6 = biological target: T7, CYP2D6 (Homo sapiens, UniProt P10635); assay: Monooxygenases activity screening, CYP2D6; design: key to one-step metabolite detected in CYP2D6 incubation: +, detected; -, not detected
T7 construct: purchased Discovery Life Sciences (Huntsville, LA, USA); host or cells: baculovirus-infected insect cells (microsomes, Supersomes)
Procedure: as §1

CYP2E1 = biological target: T8, CYP2E1 (Homo sapiens, UniProt P05181); assay: Monooxygenases activity screening, CYP2E1; design: key: +, detected; -, not detected
T8 construct: purchased Discovery Life Sciences (Huntsville, LA, USA); host or cells: baculovirus-infected insect cells (microsomes, Supersomes)
Procedure: as §1

CYP3A4 = biological target: T9, CYP3A4 (Homo sapiens, UniProt P08684); assay: Monooxygenases activity screening, CYP3A4; design: key: +, detected; -, not detected
T9 construct: purchased Discovery Life Sciences (Huntsville, LA, USA); host or cells: baculovirus-infected insect cells (microsomes, Supersomes)
Procedure: as §1

CYP3A5 = biological target: T10, CYP3A5 (Homo sapiens, UniProt P20815); assay: Monooxygenases activity screening, CYP3A5; design: key: +, detected; -, not detected
T10 construct: purchased Discovery Life Sciences (Huntsville, LA, USA); host or cells: baculovirus-infected insect cells (microsomes, Supersomes)
Procedure: as §1

[1] = biological target: T11, flavin-containing monooxygenase 3 (FMO3) (Homo sapiens, UniProt P31513); assay: Monooxygenases activity screening, FMO3; design: key: +, detected; -, not detected
T11 construct: purchased Discovery Life Sciences (Huntsville, LA, USA); host or cells: baculovirus-infected insect cells (microsomes, Supersomes)
T11 sequence (P31513 1-532): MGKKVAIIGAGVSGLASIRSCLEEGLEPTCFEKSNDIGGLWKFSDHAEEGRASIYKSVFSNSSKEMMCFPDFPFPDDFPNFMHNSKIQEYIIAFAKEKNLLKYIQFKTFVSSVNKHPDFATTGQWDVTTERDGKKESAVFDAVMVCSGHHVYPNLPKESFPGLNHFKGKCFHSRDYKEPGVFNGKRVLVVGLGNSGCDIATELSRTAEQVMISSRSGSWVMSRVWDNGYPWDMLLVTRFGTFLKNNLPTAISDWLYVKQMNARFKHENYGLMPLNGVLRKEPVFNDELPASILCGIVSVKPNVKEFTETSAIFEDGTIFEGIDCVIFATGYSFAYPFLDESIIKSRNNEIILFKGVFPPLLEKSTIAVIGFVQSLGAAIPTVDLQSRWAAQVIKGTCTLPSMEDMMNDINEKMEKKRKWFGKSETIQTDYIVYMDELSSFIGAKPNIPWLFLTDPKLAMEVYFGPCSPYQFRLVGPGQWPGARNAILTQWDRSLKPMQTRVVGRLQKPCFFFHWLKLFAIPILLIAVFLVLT
Procedure: as §1

[2] = substrate 4MeO-αP-VP 25 µM, Table S3.3
[3] = substrate 4MeS-NE-BP 25 µM, Table S3.4

T5 sequence (P11712 whole entry): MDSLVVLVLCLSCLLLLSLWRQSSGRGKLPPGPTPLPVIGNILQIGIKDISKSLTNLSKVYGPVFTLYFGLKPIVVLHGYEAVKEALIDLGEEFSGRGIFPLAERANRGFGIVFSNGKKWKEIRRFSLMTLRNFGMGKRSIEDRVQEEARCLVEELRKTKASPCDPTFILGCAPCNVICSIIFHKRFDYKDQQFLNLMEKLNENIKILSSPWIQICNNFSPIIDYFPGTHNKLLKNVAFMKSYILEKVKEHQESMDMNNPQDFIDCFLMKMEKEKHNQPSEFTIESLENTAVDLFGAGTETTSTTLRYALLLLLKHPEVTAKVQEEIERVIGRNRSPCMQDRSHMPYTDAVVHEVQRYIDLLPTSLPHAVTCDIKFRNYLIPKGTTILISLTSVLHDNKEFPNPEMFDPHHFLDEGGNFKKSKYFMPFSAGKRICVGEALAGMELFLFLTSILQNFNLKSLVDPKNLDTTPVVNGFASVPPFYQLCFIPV
T9 sequence (P08684 whole entry): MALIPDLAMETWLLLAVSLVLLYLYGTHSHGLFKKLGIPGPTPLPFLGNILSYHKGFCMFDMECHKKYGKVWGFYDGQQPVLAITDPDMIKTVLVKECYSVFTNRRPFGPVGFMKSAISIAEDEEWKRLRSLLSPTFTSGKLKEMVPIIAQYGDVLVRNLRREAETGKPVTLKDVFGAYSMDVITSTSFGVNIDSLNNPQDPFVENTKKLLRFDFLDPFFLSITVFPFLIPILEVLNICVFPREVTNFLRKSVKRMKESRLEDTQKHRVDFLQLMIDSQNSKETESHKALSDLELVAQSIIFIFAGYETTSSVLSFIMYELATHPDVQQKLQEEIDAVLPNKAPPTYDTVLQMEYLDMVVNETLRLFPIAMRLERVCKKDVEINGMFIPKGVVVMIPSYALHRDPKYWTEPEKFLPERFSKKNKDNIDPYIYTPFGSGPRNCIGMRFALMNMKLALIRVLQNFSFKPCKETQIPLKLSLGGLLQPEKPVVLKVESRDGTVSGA
T7 sequence (P10635 whole entry): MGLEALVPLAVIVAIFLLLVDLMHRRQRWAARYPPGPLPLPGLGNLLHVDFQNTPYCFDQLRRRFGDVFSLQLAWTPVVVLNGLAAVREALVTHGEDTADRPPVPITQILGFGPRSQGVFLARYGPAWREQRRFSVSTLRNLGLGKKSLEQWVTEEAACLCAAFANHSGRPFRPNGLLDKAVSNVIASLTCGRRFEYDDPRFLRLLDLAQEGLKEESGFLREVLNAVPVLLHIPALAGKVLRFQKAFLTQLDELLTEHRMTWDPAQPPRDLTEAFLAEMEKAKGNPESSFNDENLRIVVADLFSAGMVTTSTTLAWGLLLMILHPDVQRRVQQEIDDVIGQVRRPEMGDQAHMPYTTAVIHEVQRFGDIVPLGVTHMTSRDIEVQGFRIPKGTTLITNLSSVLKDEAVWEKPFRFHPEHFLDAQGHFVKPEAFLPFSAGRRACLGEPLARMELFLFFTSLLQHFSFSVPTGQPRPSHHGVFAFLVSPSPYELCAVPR
T8 sequence (P05181 whole entry): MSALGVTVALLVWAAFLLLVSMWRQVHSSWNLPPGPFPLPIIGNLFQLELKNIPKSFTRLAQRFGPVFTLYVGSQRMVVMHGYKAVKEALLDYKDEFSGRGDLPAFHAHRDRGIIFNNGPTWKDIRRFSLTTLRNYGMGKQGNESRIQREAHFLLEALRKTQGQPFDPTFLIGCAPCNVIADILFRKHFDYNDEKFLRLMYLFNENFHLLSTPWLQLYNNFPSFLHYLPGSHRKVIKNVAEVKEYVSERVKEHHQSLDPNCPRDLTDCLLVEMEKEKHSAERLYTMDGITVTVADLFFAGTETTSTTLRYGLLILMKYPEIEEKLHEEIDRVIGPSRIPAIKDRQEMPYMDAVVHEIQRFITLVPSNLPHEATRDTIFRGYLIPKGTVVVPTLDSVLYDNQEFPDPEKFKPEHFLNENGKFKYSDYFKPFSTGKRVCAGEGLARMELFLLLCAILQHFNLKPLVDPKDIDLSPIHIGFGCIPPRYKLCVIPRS
T10 sequence (P20815 whole entry): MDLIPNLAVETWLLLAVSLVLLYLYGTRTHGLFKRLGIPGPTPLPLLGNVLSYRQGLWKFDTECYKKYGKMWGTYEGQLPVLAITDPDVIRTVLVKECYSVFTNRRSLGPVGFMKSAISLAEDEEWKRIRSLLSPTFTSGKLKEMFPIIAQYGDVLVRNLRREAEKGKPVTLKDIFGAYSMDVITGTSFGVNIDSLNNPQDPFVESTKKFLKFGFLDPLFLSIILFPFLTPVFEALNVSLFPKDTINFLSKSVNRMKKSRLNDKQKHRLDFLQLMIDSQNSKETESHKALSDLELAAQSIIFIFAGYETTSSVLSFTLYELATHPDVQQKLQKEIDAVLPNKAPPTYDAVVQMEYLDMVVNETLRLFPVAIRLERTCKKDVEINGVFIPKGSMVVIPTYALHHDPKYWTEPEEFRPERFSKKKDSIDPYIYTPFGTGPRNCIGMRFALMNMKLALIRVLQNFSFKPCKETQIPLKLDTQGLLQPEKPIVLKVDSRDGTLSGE
T6 sequence (P33261 whole entry): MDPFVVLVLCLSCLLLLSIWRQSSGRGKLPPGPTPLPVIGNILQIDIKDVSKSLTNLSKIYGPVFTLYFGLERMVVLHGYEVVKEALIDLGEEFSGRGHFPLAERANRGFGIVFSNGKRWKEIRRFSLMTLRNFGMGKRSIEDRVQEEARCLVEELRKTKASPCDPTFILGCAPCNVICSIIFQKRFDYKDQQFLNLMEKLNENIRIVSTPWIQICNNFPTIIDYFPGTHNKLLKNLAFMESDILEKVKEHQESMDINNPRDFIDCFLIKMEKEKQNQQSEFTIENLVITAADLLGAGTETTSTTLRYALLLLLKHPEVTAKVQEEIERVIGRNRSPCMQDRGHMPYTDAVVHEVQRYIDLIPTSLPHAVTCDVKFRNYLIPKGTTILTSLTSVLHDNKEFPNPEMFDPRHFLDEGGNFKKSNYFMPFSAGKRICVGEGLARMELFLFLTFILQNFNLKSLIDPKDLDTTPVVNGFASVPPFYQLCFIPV

Structure (SMILES)	one-step metabolite detected in CYP1A2 incubation (CYP1A2; [2])	one-step metabolite detected in CYP2A6 incubation (CYP2A6; [2])	one-step metabolite detected in CYP2B6 incubation (CYP2B6; [2])	one-step metabolite detected in CYP2C8 incubation (CYP2C8; [2])	one-step metabolite detected in CYP2C9 incubation (CYP2C9; [2])	one-step metabolite detected in CYP2C19 incubation (CYP2C19; [2])	one-step metabolite detected in CYP2D6 incubation (CYP2D6; [2])	one-step metabolite detected in CYP2E1 incubation (CYP2E1; [2])	one-step metabolite detected in CYP3A4 incubation (CYP3A4; [2])	one-step metabolite detected in CYP3A5 incubation (CYP3A5; [2])	one-step metabolite detected in FMO3 incubation [1, 2]	one-step metabolite detected in CYP1A2 incubation (CYP1A2; [3])	one-step metabolite detected in CYP2A6 incubation (CYP2A6; [3])	one-step metabolite detected in CYP2B6 incubation (CYP2B6; [3])	one-step metabolite detected in CYP2C8 incubation (CYP2C8; [3])	one-step metabolite detected in CYP2C9 incubation (CYP2C9; [3])	one-step metabolite detected in CYP2C19 incubation (CYP2C19; [3])	one-step metabolite detected in CYP2D6 incubation (CYP2D6; [3])	one-step metabolite detected in CYP2E1 incubation (CYP2E1; [3])	one-step metabolite detected in CYP3A4 incubation (CYP3A4; [3])	further results
CCCC(C(=O)c1ccc(O)cc1)N1CCCC1 (centres unmarked) [MO3.2]	+	-	-	+	-	+	+	-	+	-	-										
CCCC(C(=O)c1ccc(OC)cc1)[N+]1([O-])CCCC1 (centres unmarked) [MO3.4]	+	+	-	-	-	-	+	-	+	-	+										
CCNC(CC)C(=O)c1ccc(S)cc1 (centres unmarked) [MT1.1]												-	-	-	-	-	-	+	-	-	one-step metabolite detected in CYP3A5 incubation (CYP3A5; [3]): -; one-step metabolite detected in FMO3 incubation [1, 3]: -
CCC(N)C(=O)c1ccc(SC)cc1 (centres unmarked) [MT1.3]												+	-	+	+	-	+	+	-	+	one-step metabolite detected in CYP3A5 incubation (CYP3A5; [3]): +; one-step metabolite detected in FMO3 incubation [1, 3]: -
